Experimental data taken from patent US12168677B2, “Proteins for the treatment of epithelial barrier function disorders” (Genevive, Inc., priority 2017, dated 2024).
Entries after “also recorded” stand apart in the source; their conditions may differ.

Experiments:
[1] = system: HCT8 enterocytes and HT29-MTX goblet cells; assay: Co-culture trans-epithelial electrical resistance (TEER) assay with heat killed E. coli challenge; assay type: cell-based, human; conditions: staurosporine 100 nM, negative control
Method: Assays were performed as described below in trans-well plates where co-cultures of multiple cell types were performed utilizing a permeable membrane to separate cells. In the apical (top) chamber, human colonic epithelial cells, consisting of a mixture of enterocytes and goblet cells, were cultured until cells obtained tight junction formation and barrier function capacity as assessed by measurement of trans-epithelial electrical resistance (TEER). In the basolateral chamber, monocytes were cultured separately. Epithelial cells were primed with inflammatory cytokines. The assays measured the effect of a therapeutic protein, i.e., SG-15, on epithelial barrier function, wound healing, and production of cytokines. Cell culture. The HCT8 human enterocyte cell line (ATCC Cat. No. CCL-244) was maintained in RPMI-1640 medium supplemented with 10% fetal bovine serum, 100 IU/ml penicillin, 100 μg/ml streptomycin, 10 μg/ml gentamicin and 0.25 μg/ml amphotericin (cRPMI). […] Epithelial cells were trypsinized from culture flasks and viable cells determined by trypan blue counting. […] Trans-epithelial electrical resistance (TEER) readings were measured after the IFN-γ treatment and were used as the pre-treatment TEER values. […]

[2] = system: HCT8 enterocytes and HT29-MTX goblet cells; assay: Epithelial cell wound healing (Oris Cell Migration assay); assay type: cell-based, human; conditions: SG protein 1 μg/ml, EGF 30 ng/ml, staurosporine 100 nM; 48 hours
From the text: HCT8 enterocytes and HT29-MTX goblet cells were used in wound healing studies. The 96 well Oris Cell Migration assay containing plugs preventing cell attachment in the center of each well was used according to the manufacturer's instructions (Platypus Technologies, Madison, WI). The migration assay plates were warmed to room temperature prior to use and plugs were removed from 100% confluence wells prior to cell addition. The HCT8 enterocyte and HT29-MTX goblet cell lines were used at a 9:1 ratio with a total of 5×10^4 total cells added per well (4.5×10^4 HCT8 cells and 0.5×10^4 HT29-MTX cells). […] Plugs were then removed from all control and sample wells. Control wells included cells treated with the diluent vehicle as the blank, 30 ng/ml epidermal growth factor (EGF) as the positive control, and 100 nM staurosporine as the negative control, all diluted in cRPMI. Sample wells contained SG-15 protein at a concentration of 1 μg/ml diluted in cRPMI. 100% and 0% wells were cultured in cRPMI. […] Prior to staining for viable cells, plugs were removed from the 0% wells. Treatment media was removed and cells were washed in PBS containing 0.9 mM CaCl2) and 0.5 mM MgCl2. […] Samples were normalized between 100% and 0% samples and values expressed as a percent growth.

DSS treated mice [3] = assay: DSS model: colon weight to length ratio; assay type: in vivo, C57BL/6 mice; conditions: Gly2-GLP2 i.p. b.i.d.; 2.5% DSS 6 days
Method: Eight-week old C57BL/6 mice were housed 5 animals were cage and given food and water ad libitum for 7 days. Following the 7-day acclimation period, treatments were initiated concurrently with addition of 2.5% DSS to the drinking water. […] The mice were treated with 2.5% dextran sodium sulfate (DSS) in their drinking water for 6 days. Treatments were continued with SG-15 or […]-GLP2 twice a day (b.i.d.) in the morning and evening (every 8 and 16 hr) with i.p. injections at 50 nmoles/kg. Fresh 2.5% DSS drinking water was prepared every 2 days. Colon length and weight were measured in mice included in the DSS model study described in Example 1E. […] Accordingly, the ratio of tissue weight to length can be used as a readout of DSS induced tissue damage. SG-15 administration to DSS treated mice (Example 1E) reduced the colon weight to length ratio elicited by DSS (DSS=3.9 mg/mm, DSS+SG-15=3.5 mg/mm; p=0.13). […] However, no difference was observed between treated with SG-15 as compared to treatment with […]GLP2. The graph in FIG. 9 represents data pooled from the 2 individual experiments (n=20).

DSS treated mice [4] = assay: DSS model: colon length; assay type: in vivo, C57BL/6 mice; conditions: 50 nmoles/kg i.p. b.i.d.; 2.5% DSS 6 days
Method: Eight-week old C57BL/6 mice were housed 5 animals were cage and given food and water ad libitum for 7 days. Following the 7-day acclimation period, treatments were initiated concurrently with addition of 2.5% DSS to the drinking water. […] The mice were treated with 2.5% dextran sodium sulfate (DSS) in their drinking water for 6 days. Treatments were continued with SG-15 or […]-GLP2 twice a day (b.i.d.) in the morning and evening (every 8 and 16 hr) with i.p. injections at 50 nmoles/kg. Fresh 2.5% DSS drinking water was prepared every 2 days. Colon length was measured in mice included in the DSS model described in Example 1E. […] The graph in FIG. 8 represents data pooled from the 2 individual experiments (n=20).

[5] = parameters: species or system mice; conditions: mouse, in vivo, ip

Compound: CN[C@@H]1C[C@H]2O[C@@](C)([C@@H]1OC)n1c3ccccc3c3c4c(c5c6ccccc6n2c5c31)C(=O)NC4 [staurosporine, reference compound]
- Effect of control compound on TEER [1]: drastic decrease in TEER
- Wound healing, percent growth [2]: suppressing cell proliferation

Compound: Gly2-GLP2: a stable analog of glucagon-like peptide 2 (GLP2), positive control in DSS model
- Colon weight to length ratio, effect of positive control in DSS mice (DSS treated mice [3]): significant reduction in colon weight to length ratio
- Colon length / colon shortening elicited by DSS treatment (DSS treated mice [4]): significant improvement in colon length
- Colon length, Gly2-GLP2 compared with SG protein (DSS treated mice [4]): significant improvement over SG-16; also recorded: significant improvement over SG-17; also recorded: significant improvement over SG-18

Compound: epidermal growth factor (NSDSECPLSHDGYCLHDGVCMYIEALDKYACNCVVGYIGERCQYRDLKWWELR; Epidermal growth factor; UniProt P01133 971-1023, looked up) [EGF, positive control in wound healing assay, reference compound]
- Wound healing, percent growth [2]: increasing proliferation

Compound: fluorescently labeled bovine serum albumin: tracer protein for tracking studies following intraperitoneal injection
- Time at which protein reached the colon after i.p. delivery [5]: 6 h
